According to patent US12263172B2, “Toll-like receptor agonists for use in the treatment of hepatitis b” (priority 2019, dated 2025):

Tested on: CYP1A2, 2B6, and 3A4
Assay: in vitro CYP induction
Assay type: in vitro ADME
Settings: up to 10 μM

`CCCCOc1nc(N)c2[nH]cc(Cc3ccc(CN4CCCC4)cc3)c2n1` [Compound 4] was tested, and the “in vitro induction of CYP1A2, 2B6, and 3A4” value was “not an in vitro inducer”.
